Laboratory results: the METLIN SMRT retention time set (Domingo-Almenara et al. 2019)

Test: gradient 5% acetonitrile 3 min, to 50% in 2 min, to 85% in 15 min, held 3 min, 100 µL/min
Conditions: column: Zorbax Extend-C18 2.1 x 50 mm; eluents: water / acetonitrile, 0.1% formic acid
Outline: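 Retention times of pure standards were taken from adduct peaks that were selected by computer and manually inspected. Over 3 months, mixtures of ~100 molecules were run by HPLC–quadrupole time-of-flight mass spectrometry in positive and negative ionization mode. The Zorbax Extend-C18 column (2.1 × 50 mm, 1.8 μm) ran at 100 μL/min in water and acetonitrile, each containing 0.1% formic acid, with 40 μL dead volume and 900 μL dwell volume.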

SMILES	RP-LC retention time [s]
CCn1nc(C)c(CCNC(=O)c2ccc3c(c2)N(C)C(=O)C2CCCCN32)c1C (configuration not stated)	661
O=c1ccc(N2CCCN(S(=O)(=O)c3cccc(Cl)c3)CC2)nn1-c1ccccc1	868
CN1C(=O)Cc2cc(NC(=O)c3cccs3)ccc21	631
CCOCCn1c(-c2ccccc2Cl)nc2ccccc21	707
O=C(Cn1c(-c2ccccc2F)nc2ccccc21)N1CCOCC1	600
Cc1nnc2ccc(NC(=O)Nc3ccccc3F)cn12	658
CN(C)[C@@H]1CN(C(=O)c2ccc(F)cc2Cl)C[C@H]1CO	553
CCc1ccc(CNC(=O)C2CCCN(c3nccnc3Sc3ccccc3)C2)cc1 (configuration not stated)	1140
CCN1CCCn2cc(S(=O)(=O)Nc3cccc(C)c3C)cc2C1=O	768
CCCN(CCC)[C@@H]1CCc2cccc(O)c2C1	691
CCc1ccc(-n2nc(N3CCCC(C(=O)NCc4cccc(Br)c4)C3)ccc2=O)cc1 (configuration not stated)	991
O=C(Cn1cccc1-c1nc(-c2ccc(Cl)cc2)cs1)N1CCCC1	1130
O=C(CSc1nnc2ccccn12)NCc1ccco1	576
O=C(CSCc1ccccc1)Nc1cccc(-c2cn3cccnc3n2)c1	640
Cc1cccc(-c2nc(Cn3nnc(-c4nc(-c5ccccc5Cl)no4)c3C)c(C)o2)c1	908
CCN(C(=O)CC(C)S(=O)(=O)c1ccc2c(c1)CCN2C(=O)C1CC1)c1ccccc1 (configuration not stated)	867
O=C(NCc1ccco1)c1nnn(-c2ccc(F)cc2)c1-c1ccncc1	726
O=S(=O)(c1ccc(-c2noc(-c3cccc(Br)c3)n2)cc1)N1CCCC1	1290
COCCCNC(=O)C1CCN(C(=O)c2ncn3c2COC(c2ccc(OC)cc2)C3)CC1 (configuration not stated)	651
O=C(Nc1cc(-c2ccsc2)no1)c1ccc(Cl)s1	1030

Continued, values first:

RP-LC retention time [s]	SMILES
834	CC(C)c1ccc(NC(=O)CSc2ccc(NC(=O)C3CC3)nn2)cc1
818	Cc1nn(CC(=O)NCC2CCCO2)c(=O)c2c(-n3cccc3)n(-c3cccc(F)c3)nc12 (configuration not stated)
740	CC(C)n1cnc(S(=O)(=O)N2CCC(C(=O)Nc3ccc(F)cc3)CC2)c1
711	Cc1noc(C)c1CCNC(=O)C1CCN(C(=O)c2ncn3c2COC(c2ccc(F)cc2)C3)CC1 (configuration not stated)
837	CCCn1cc(CCNS(=O)(=O)c2cccc(OC)c2)c2cccnc21
1140	COc1ccc(-c2ncc3c(n2)CCN(S(=O)(=O)c2ccc(C)cc2C)C3)cc1
1260	O=S(=O)(c1ccc2c(c1)CCC2)N1CCC(c2noc(-c3cccc(F)c3)n2)CC1
719	CC(C)NC(=O)c1cccc(Nc2c(-c3ccccc3)nc3cnccn23)c1
1240	CCc1cccc(NC(=O)Cn2nc(N3CCCC(C)C3)c3ccccc3c2=O)c1 (configuration not stated)
1030	CC1CCN(S(=O)(=O)c2nn(C)cc2C(=O)NCC(C)c2ccccc2)CC1 (configuration not stated)
798	Cc1ccc(CNC(=O)N2CCCC2c2cc(C)on2)cc1 (configuration not stated)
866	Cc1ccc(N2CCCS2(=O)=O)cc1NS(=O)(=O)c1c(C)noc1C
779	CCn1ccc(NC(=O)NC2CCCCC2)n1
930	COCc1cc2nn(CC(=O)Nc3c(C)cccc3C)c(=O)n2c(-c2ccccc2)n1
784	Cc1ccccc1Cn1cc(S(=O)(=O)N2CCOCC2)ccc1=O
641	COCc1ncc(C)n1CC1CCN(S(=O)(=O)c2cccc3nsnc23)CC1
603	COCc1cc(=O)n(CC(=O)NCc2ccc(F)cc2F)c(N)n1
